Results as given in US11672795B2, “Compositions and methods for treating pulmonary vascular disease” (UNIVERSITY OF PITTSBURGH-OF THE COMMONWEALTH SYSTEM OF …, priority 2016, dated 2023).

What was measured:
Lox = Lox activity in lungs of monocrotaline-exposed rats; format: in vivo, rat; details: daily BAPN or daily i.p. verteporfin 25 mg/kg, vs vehicle
Procedure: Monocrotaline-treated rats: As we previously described (7, 8), male Sprague-Dawley rats (10-14 week old) were injected with 60 mg/kg monocrotaline at time 0; at 0-4 weeks post-exposure, right heart catheterization was performed followed by harvest of lung tissue for RNA extraction or paraffin embedding, as described below (section: Tissue harvest).
To establish definitively whether periarteriolar ECM remodeling and YAP/TAZ modulate vascular cell metabolism in vivo, it was determined whether alteration of YAP/TAZ-dependent mechanotransduction directly controls glutaminolysis and PH development in the monocrotaline rat model. First, using a known pharmacologic inhibitor (β-aminoproprionitrile, BAPN) of Lox, the enzyme responsible for collagen crosslinking and consequent matrix stiffening, it was determined whether inhibition of ECM stiffening could prevent the metabolic changes and downstream PH manifestations observed in monocrotaline-exposed rats (FIG. 4A). […] Such metabolic effects further decreased vascular endothelial and smooth muscle proliferation, as reflected by in situ arteriolar staining (FIG. 4G), and ameliorated hemodynamic and histologic manifestations of PH, as measured by vascular remodeling and muscularization (FIG. 4G), and right ventricular systolic pressure (RVSP) (FIG. 4H).

PAECs = test: Apoptosis of PAECs on soft or stiff matrix (caspase 3/7 activity, cleaved caspase-3 staining); format: cell-based, human
Procedure: A-C) PAECs were plated on soft (1 kPa) or stiff (50 kPa) matrix and exposed to indicated treatments. Apoptosis (A-C) and proliferation (B-C) were quantified 48 h after plating. […] In all panels, mean expression in control groups (soft matrix) was assigned a fold change of 1, to which relevant samples were compared. Data are expressed as mean±SD (*P<0.05; ** P<0.01, ***P<0.001).
After various indicated treatments, cultured cells were fixed with PBS/PFA 4% for 10 min and permeabilized with PBS/Triton 100×0.1% for 10 min. The cells were then incubated with anti-PCNA (#4912; 1/100; Invitrogen), anti-Ki67 (ab15580; 1/200; Abcam), and/or anti-cleaved caspase-3 (1/200; Cell Signaling) at room temperature for 2 hours. Secondary antibodies coupled with Alexa-594 and/or Alexa-488 (Thermo Scientific) were used at 1/500. Nuclei were counterstained with DAPI (Sigma).
Caspase 3/7 activity was quantified using the Caspase-Glo 3/7 Assay (Promega), according to manufacturer's instructions. Briefly, cells were plated on hydrogel of different stiffness and treated as described. Twenty four hours after plating, cells were cultured in the presence or absence of serum for twenty-four hours. Cells were then lysed and 10 μg of total protein were incubated for 1 h with the caspase substrates, and luminescence was quantified by plate reader (SynergyHTX multi-mode reader, Biotek).

GLS1 = test: Targeted LC-MS/MS of intracellular metabolites in PAECs on soft or stiff matrix with GLS inhibitors; format: cell-based, human; details: stiff matrix, BPTES 10 μM, DON 5 μM, C968 10 μM
Procedure: HEK293T cells (American Type Culture Collection) were cultivated in DMEM containing 10% fetal bovine serum (FBS). Primary human pulmonary arterial endothelial cells (PAECs) were grown in EGM-2 cell culture media (Lonza), and experiments were performed at passages 3 to 6. Primary human pulmonary arterial smooth muscle cells (PASMCs) were cultured in SmGM-2 cell culture media (Lonza), and experiments were performed at passages 3 to 9. Inhibitors of GLS1 (2, 3): BPTES (Bis-2-(5-phenylacetamido-1,3,4-thiadiazol-2-yl)ethyl sulphide), DON (6-Diazo-5-oxo-L-norleucine), and C968 (Glutaminase Inhibitor, Compound 968, 5-(3-Bromo-4-(dimethylamino)phenyl)-2,2-dimethyl-2,3,5,6-tetrahydrobenzo[a]phenanthridin-4(1H)-one) were purchased from Sigma-Aldrich and used at concentration of 10 μM, 5 μM and 10 μM respectively. Glutamate was purchased from Sigma Aldrich and used at concentration of 2 mM. Aspartate was purchased from Sigma Aldrich and used at concentration of 10 mM.
Metabolite extraction was performed essentially as described with minor modifications (35). Briefly, metabolites were extracted from cultured cells and CD31+ cells on dry ice using 80% aqueous methanol pre-cooled at −80° C. Metabolites were extracted from plasma pre-cleared by centrifugation at 20,000×g for 10 min at 4° C. Supernatants were extracted with four volumes of 100% methanol pre-cooled at −80° C. for four hours at −80° C. An internal standard, [^13C4]-2-oxoglutarate (Cambridge Isotope Laboratories) was added during metabolite extraction. Insoluble material from both cell and plasma extractions was removed by centrifugation at 20,000×g for 15 min at 4° C. The supernatant was analysed by targeted LC-MS/MS as previously described (36). Metabolites were separated using a ZIC-HILIC stationary phase (150 mm×2.1 mm×[…]; Merck). The MS parameters were optimized using a glutamine standard solution. Monitored mass transitions were 87>87 (pyruvate), 115>73+99 (succinate), 132>88 (aspartate), 145>101 (20G), […] (glutamine), 146>128 (glutamate), and 149>105 ([^13C4]-20G). Mass transitions and retention time windows were confirmed by the analysis of neat and matrix-spiked standards. Peak areas were quantified by Xcalibur Software (Thermo) and manually reviewed.
To determine whether GLS1 is critical for stiffness-induced and YAP/TAZ-dependent glutaminolysis, PAECs were cultivated in soft or stiff matrix, and exposed to known inhibitors of two isoforms of GLS1 (KGA and GAC), BPTES (Bis-2-(5-phenylacetamido-1,3,4-thiadiazol-2-yl)ethyl sulphide), DON (6-Diazo-5-oxo-L-norleucine), or CB-968 (glutaminase inhibitor, compound 968, C-968) (FIG. 3A-C) or siRNA (si-GLS; FIG. 3D-G). As quantified by LC-MS/MS, inhibition of GLS in PAECs blunted the stiffness-induced processes of glutamine consumption, glutamate production, and aspartate production (FIGS. 3A and E). […] Similar alterations of metabolic activity were observed when inhibiting GLS1 in PASMCs (data not shown).

| Compound | LOX activity in lungs (Lox) | apoptosis (cleaved caspase-3 staining, CC-3+) (PAECs; serum starvation, soft and stiff conditions) | caspase 3/7 activity (PAECs; soft (1 kPa) or stiff (50 kPa) matrix, 24 h after serum depletion, vs vehicle control) | alterations of metabolite expression in stiff matrix (stiffness-induced glutamine consumption, glutamate production, aspartate production) (GLS1) | lactate/pyruvate ratio (glycolysis) (GLS1) |
| --- | --- | --- | --- | --- | --- |
| C=Cc1c(C)c2cc3nc(cc4[nH]c(cc5nc(cc1[nH]2)C(C)=C5CCC(=O)O)c(CCC(=O)OC)c4C)[C@@]1(C)C3=CC=C(C(=O)OC)[C@H]1C(=O)OC [Verteporfin, 3-[(23S,24R)-14-ethenyl-5-(3-methoxy-3-oxopropyl)-22,23-bis(methoxycarbonyl)-4,10,15,24-tetramethyl-25,26,27,28-tetraazahexacyclo[16.6.1.1^3,6.1^8,11.1^13,16.0^19,24]octacosa-1,3,5,7,9,11(27),12,14,16,18(25),19,21-dodecaen-9-yl]propanoic acid] | decreased | – | – | – | – |
| CN(C)c1ccc(C2Nc3ccc4ccccc4c3C3=C2C(=O)CC(C)(C)C3)cc1Br (stereo not drawn) [C968, 5-(3-Bromo-4-(dimethylamino)phenyl)-2,2-dimethyl-2,3,5,6-tetrahydrobenzo[a]phenanthridin-4(1H)-one] | – | not affected | No significant changes | blunted | decreased |
| N#CCCN [BAPN, β-aminoproprionitrile] | decreased | – | – | – | – |
